{"source": "patent US8778871B2", "about": "(Takeda Pharmaceutical Company Limited, priority 2004, dated 2014)", "molecular_target": "T1, hOT7T175 (Homo sapiens, UniProt Q969F8)", "T1 construct": "expressed in transfected cells", "T1 sequence (Q969F8 whole entry L364H)": "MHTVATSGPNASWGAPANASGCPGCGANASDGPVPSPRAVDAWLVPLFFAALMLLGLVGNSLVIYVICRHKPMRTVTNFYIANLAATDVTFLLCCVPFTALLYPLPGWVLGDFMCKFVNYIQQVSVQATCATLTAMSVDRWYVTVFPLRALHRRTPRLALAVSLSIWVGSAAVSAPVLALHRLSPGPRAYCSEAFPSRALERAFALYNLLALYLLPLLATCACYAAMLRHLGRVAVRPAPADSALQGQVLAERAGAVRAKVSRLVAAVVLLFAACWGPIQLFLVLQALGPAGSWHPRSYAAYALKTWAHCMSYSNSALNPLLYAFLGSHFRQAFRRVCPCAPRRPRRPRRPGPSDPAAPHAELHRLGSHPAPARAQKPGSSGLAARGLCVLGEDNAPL", "assay": "Intracellular Ca ion level-increasing activity using FLIPR (180 seconds; specific activity to Metastin (1-54))", "type": "cell-based", "conditions": "hOT7T175/CHO, change in intracellular calcium ion level for 180 seconds, Tables 21-23", "protocol": "In accordance with the method described in JPA 2000-312590, the intracellular Ca ion level-increasing activity was measured using FLIPR. […]\nThe intracellular Ca ion level-increasing activity of the synthetic peptide in hOT7T175/CHO was determined using FLIPR (Molecular Devices, Inc.).\nhOT7T175/CHO was subcultured in DMEM supplemented with 10% dialyzed fetal bovine serum (hereinafter abbreviated as dFBS) and provided for the experiment (hereinafter abbreviated as 10% dFBS/DMEM). The hOT7T175/CHO was suspended in 10% dFBS-DMEM in 15×10^4 cells/ml. The suspension was inoculated on a 96-well plate for FLIPR (Black Plate Clear Bottom, Coster, Inc.) at 200 μl each (3.0×10^4 cells/200 μl), followed by incubation at 37° C. overnight in a 5% CO2 incubator. The cells thus incubated were used (hereinafter simply referred to as the cell plate). Then, 21 ml of HANKS/HBSS (9.8 g of HANKS', 0.35 g of sodium hydrogencarbonate, 20 ml of 1M HEPES; after adjusting the pH to 7.4 with 1N sodium hydroxide, the mixture was subjected to sterilization through a filter), 210 μl of […] Probenecid and 210 μl of fetal bovine serum (FBS) were mixed (HANKS/HBSS-Probenecid-FBS).\nFurthermore, 2 vials of Fluo3-AM (50 μg/vial) were dissolved in 21 μL of dimethylsulfoxide and 21 μL of 20% Pluronic acid. The resulting solution was added to and mixed with 10 ml of HANKS/HBSS-Probenecid-FBS described above. After the culture medium was removed, the mixture was dispensed onto the cell plate in 100 μl each/well, followed by incubation at 37° C. for an hour in a 5% CO2 incubator (pigment loading). The peptide was dissolved in dimethylsulfoxide in 1×10^−3 M. The peptide solution was diluted with HANKS'/HBSS containing 2.5 mM Probenecid and 0.2% BSA. The dilution was transferred to a 96-well plate for FLIPR (V-Bottom plate, Coster, Inc.) (hereinafter referred to as a sample plate). After completion of the pigment loading onto the cell plate, the cell plate washed 4 times with wash buffer, which was obtained by adding 2.5 mM Probenecid to HANKS'/HBSS, using a plate washer to leave 100 μL of wash buffer after the washing. The cell plate and the sample plate were set in FLIPR and 0.05 ml of a sample from the sample plate was automatically transferred to the cell plate with the FLIPR device to promote the cell response. A change in intracellular calcium ion level for 180 seconds was measured with passage of time.", "note": "Non-standard residues stand in square brackets, D forms with d. Residues, ends and D or L forms follow the SMILES beside them. *: point of attachment. X10 = CNC(=N)NCCC[C@H](NC(=O)[C@H](CC(C)C)NCCN*)C(=O)N[C@@H](Cc1ccccc1)C(N)=O; Acetyl(2-(4-imidazolyl)) = O=C(Cc1c[nH]cn1)*; Phe(4-F) = N[C@@H](Cc1ccc(F)cc1)C(=O)O; Arg(Me) = CNC(=N)NCCC[C@H](N)C(=O)O; 4Pal = N[C@@H](Cc1ccncc1)C(=O)O; azaGly = NNC(=O)O", "data": [{"compound": "CNC(=N)NCCC[C@H](NC(=O)[C@H](CC(C)C)NCCNC(=O)[C@H](Cc1ccccc1)NC(=O)[C@H](CO)NC(=O)[C@H](CC(N)=O)NC(=O)[C@H](Cc1c[nH]c2ccccc12)NC(=O)[C@H](CC(N)=O)NC(=O)[C@H](N)Cc1ccc(O)cc1)C(=O)N[C@@H](Cc1ccccc1)C(N)=O", "note": "[Compound No. 307, D-Tyr-Asn-Trp-Asn-Ser-Phe-GlyΨ(CH2NH)Leu-Arg(Me)-Phe-NH2] (H-[dY]NWNSF-X10)", "values": [{"measurement": "intracellular Ca ion level-increasing activity [specific activity to Metastin (1-54)]", "result": 1}]}, {"compound": "CNC(=N)NCCC[C@H](NC(=O)[C@H](CC(C)C)NC(=O)NNC(=O)[C@H](Cc1ccccc1)NC(=O)[C@H](CO)NC(=O)[C@H](CC(N)=O)NC(=O)[C@@H](NC(=O)[C@@H](CC(N)=O)NC(=O)[C@H](N)Cc1ccc(O)cc1)[C@@H](C)O)C(=O)N[C@@H](Cc1ccc(F)cc1)C(N)=O", "note": "[Compound No. 316, D-Tyr-D-Asn-Thr-Asn-Ser-Phe-AzaGly-Leu-Arg(Me)-Phe(4F)-NH2] (H-[dY][dN]TNSF[azaGly]L[Arg(Me)][Phe(4-F)]-NH2)", "values": [{"measurement": "intracellular Ca ion level-increasing activity [specific activity to Metastin (1-54)]", "result": 1}]}, {"compound": "CNC(=N)NCCC[C@H](NC(=O)[C@H](CC(C)C)NC(=O)NNC(=O)[C@H](Cc1ccccc1)NC(=O)[C@H](CO)NC(=O)[C@H](CC(N)=O)NC(=O)[C@H](Cc1ccncc1)NC(=O)[C@@H](CC(N)=O)NC(=O)[C@H](N)Cc1ccc(O)cc1)C(=O)N[C@@H](Cc1ccc(F)cc1)C(N)=O", "note": "[Compound No. 317, D-Tyr-D-Asn-Pya(4)-Asn-Ser-Phe-AzaGly-Leu-Arg(Me)-Phe(4F)-NH2] (H-[dY][dN][4Pal]NSF[azaGly]L[Arg(Me)][Phe(4-F)]-NH2)", "values": [{"measurement": "intracellular Ca ion level-increasing activity [specific activity to Metastin (1-54)]", "result": 1}]}, {"compound": "CNC(=N)NCCC[C@H](NC(=O)[C@H](CC(C)C)NC(=O)NNC(=O)[C@H](Cc1ccccc1)NC(=O)[C@H](CO)NC(=O)[C@H](CC(N)=O)NC(=O)Cc1c[nH]cn1)C(=O)N[C@@H](Cc1ccccc1)C(N)=O", "note": "[Compound No. 323, 4-Imidazoleacetyl-Asn-Ser-Phe-AzaGly-Leu-Arg(Me)-Phe-NH2] ({Acetyl(2-(4-imidazolyl))}-NSF[azaGly]L[Arg(Me)]F-NH2)", "values": [{"measurement": "intracellular Ca ion level-increasing activity [specific activity to Metastin (1-54)]", "result": 1}]}, {"compound": "(2R)-2-Benzoyloxy-3-phenylpropionyl-AzaGly-Leu-Arg(Me)-Trp-NH2 [Compound No. 412]", "values": [{"measurement": "intracellular Ca ion level-increasing activity [specific activity to Metastin (1-54)]", "result": "⅕"}]}, {"compound": "(2S)-2-Benzoyloxy-3-phenylpropionyl-AzaGly-Leu-Arg(Me)-Trp-NH2 [Compound No. 380]", "values": [{"measurement": "intracellular Ca ion level-increasing activity [specific activity to Metastin (1-54)]", "result": 5}]}, {"compound": "(2S)-2-acetoxy-3-phenylpropionyl-AzaGly-Leu-Arg(Me)-Trp-NH2 [Compound No. 373]", "values": [{"measurement": "intracellular Ca ion level-increasing activity [specific activity to Metastin (1-54)]", "result": 2}]}, {"compound": "(R)-3-hydroxy-2-methylpropionyl-Phe-AzaGly-Leu-Arg(Me)-Trp-NH2 [Compound No. 452]", "values": [{"measurement": "intracellular Ca ion level-increasing activity [specific activity to Metastin (1-54)]", "result": 1}]}, {"compound": "(S)-1-(Quinolin-8-yl-carbamoyl)-4-thiapentylcarbamoyl-D-Tyr-Asn-Trp-Asn-Ser-Phe-Gly-Leu-Arg(Me)-Phe-NH2 [Compound No. 400]", "values": [{"measurement": "intracellular Ca ion level-increasing activity [specific activity to Metastin (1-54)]", "result": 1}]}, {"compound": "Ac-F[azaGly]L[Arg(Me)]F-NH2 [Compound No. 346]", "values": [{"measurement": "intracellular Ca ion level-increasing activity [specific activity to Metastin (1-54)]", "result": 2}]}, {"compound": "Benzoyl-AzaPhe-AzaGly-Leu-Arg(Me)-Trp-NH2 [Compound No. 431]", "values": [{"measurement": "intracellular Ca ion level-increasing activity [specific activity to Metastin (1-54)]", "result": 1}]}, {"compound": "Benzoyl-PheΨ(CH2O)Gly-Leu-Arg(Me)-Trp-NH2 [Compound No. 421]", "values": [{"measurement": "intracellular Ca ion level-increasing activity [specific activity to Metastin (1-54)]", "result": "⅓"}]}, {"compound": "Benzoyl-Pya(2)-AzaGly-Leu-Arg(Me)-Trp-NH2 [Compound No. 441]", "values": [{"measurement": "intracellular Ca ion level-increasing activity [specific activity to Metastin (1-54)]", "result": 1}]}, {"compound": "Benzoyl-Pya(4)-AzaGly-Leu-Arg(Me)-Trp-NH2 [Compound No. 442]", "values": [{"measurement": "intracellular Ca ion level-increasing activity [specific activity to Metastin (1-54)]", "result": "½"}]}, {"compound": "Benzyl-Phe-AzaGly-Leu-Arg(Me)-Trp-NH2 [Compound No. 450]", "values": [{"measurement": "intracellular Ca ion level-increasing activity [specific activity to Metastin (1-54)]", "result": "⅓"}]}, {"compound": "Benzylphenethylcarbamoyl-AzaGly-Leu-Arg(Me)-Trp-NH2 [Compound No. 417]", "values": [{"measurement": "intracellular Ca ion level-increasing activity [specific activity to Metastin (1-54)]", "result": 1}]}]}
